Results reported in patent US20050118290A1, “Compositions and method for treatment of steroid/nuclear receptor-mediated diseases” (University of Singapore, priority 2003, published 2005).

What was measured:
human androgen receptor = biological target: T1, human androgen receptor (Homo sapiens, UniProt P10275); test: AR (ARE)2-Luc luciferase reporter gene assay in HeLa cells; assay type: cell-based
T1 construct: expressed in transfected cells; host or cells: HeLa
T1 sequence (P10275 1-920): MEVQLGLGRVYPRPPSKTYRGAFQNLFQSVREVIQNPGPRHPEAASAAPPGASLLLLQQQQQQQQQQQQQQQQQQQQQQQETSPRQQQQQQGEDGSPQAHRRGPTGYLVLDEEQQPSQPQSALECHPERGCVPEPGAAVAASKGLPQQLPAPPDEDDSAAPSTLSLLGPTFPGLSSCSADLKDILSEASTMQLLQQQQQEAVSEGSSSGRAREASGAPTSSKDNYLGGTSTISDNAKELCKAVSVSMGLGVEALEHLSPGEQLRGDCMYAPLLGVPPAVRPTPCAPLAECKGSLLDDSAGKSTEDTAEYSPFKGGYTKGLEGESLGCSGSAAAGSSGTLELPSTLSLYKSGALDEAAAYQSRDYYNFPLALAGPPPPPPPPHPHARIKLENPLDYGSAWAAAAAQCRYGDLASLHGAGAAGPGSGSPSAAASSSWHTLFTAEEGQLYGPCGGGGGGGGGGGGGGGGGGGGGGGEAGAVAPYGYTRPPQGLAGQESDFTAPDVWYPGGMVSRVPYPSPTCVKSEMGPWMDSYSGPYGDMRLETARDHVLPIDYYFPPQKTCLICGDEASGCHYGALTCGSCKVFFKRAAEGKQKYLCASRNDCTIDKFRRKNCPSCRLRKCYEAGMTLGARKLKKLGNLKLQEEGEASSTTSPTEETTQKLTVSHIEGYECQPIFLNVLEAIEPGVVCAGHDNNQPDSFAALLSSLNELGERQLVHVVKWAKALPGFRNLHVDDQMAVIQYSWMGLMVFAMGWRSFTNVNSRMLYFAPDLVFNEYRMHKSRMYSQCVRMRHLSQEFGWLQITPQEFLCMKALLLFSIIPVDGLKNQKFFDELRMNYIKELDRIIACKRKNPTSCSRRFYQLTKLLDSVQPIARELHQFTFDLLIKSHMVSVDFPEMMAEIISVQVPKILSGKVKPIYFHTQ
Description: (§1) The capacity of HQ extract to activate other steroid receptors, namely AR, PR, GR, ERα and ERβ was examined. […] The (ARE)2-Luc plasmid consist of two repeats of Androgen Response Element (ARE) cloned upstream of the Luciferase Reporter gene in a pGL3-Basic vector (Promega).
(§2) AR, PR, GR and ERα and […] were determined by comparing luciferase activity in test cells with control cells exposed to vehicle (i.e., ethanol or methanol) only, analogous to the determination of PPAR activity as described in the previous examples.

Progesterone Receptor = biological target: T2, Progesterone Receptor (Homo sapiens, UniProt P06401); test: PR (ARE)2-Luc luciferase reporter gene assay; assay type: cell-based
T2 construct: expressed in transfected cells; host or cells: HeLa (named for the formononetin and daidzein experiments)
T2 sequence (P06401 1-933): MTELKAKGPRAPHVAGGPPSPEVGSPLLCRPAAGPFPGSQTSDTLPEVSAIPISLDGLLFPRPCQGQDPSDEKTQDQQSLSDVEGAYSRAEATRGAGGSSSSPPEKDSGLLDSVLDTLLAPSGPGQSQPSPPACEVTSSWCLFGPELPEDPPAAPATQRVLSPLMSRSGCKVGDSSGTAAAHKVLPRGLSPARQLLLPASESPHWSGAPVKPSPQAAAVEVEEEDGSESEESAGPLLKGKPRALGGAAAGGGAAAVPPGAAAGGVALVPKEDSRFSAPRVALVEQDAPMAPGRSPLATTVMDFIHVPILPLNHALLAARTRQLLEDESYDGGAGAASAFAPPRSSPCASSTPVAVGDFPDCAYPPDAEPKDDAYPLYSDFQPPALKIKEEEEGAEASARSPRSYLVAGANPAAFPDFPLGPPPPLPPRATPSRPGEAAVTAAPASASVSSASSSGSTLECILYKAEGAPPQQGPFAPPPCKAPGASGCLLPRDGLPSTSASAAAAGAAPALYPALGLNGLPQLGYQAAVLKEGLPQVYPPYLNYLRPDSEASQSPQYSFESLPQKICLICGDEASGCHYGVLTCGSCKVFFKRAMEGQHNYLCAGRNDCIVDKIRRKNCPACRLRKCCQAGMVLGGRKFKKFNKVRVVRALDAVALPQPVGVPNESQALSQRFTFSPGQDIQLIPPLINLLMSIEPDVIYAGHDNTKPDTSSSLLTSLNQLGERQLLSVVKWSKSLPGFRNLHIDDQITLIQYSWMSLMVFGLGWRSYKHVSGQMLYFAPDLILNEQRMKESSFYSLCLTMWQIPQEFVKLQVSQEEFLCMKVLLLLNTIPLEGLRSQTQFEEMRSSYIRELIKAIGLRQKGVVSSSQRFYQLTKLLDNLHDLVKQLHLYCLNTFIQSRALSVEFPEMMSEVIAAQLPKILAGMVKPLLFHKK
Description: as §1, §2

Compound | Luciferase activity (Fold over vehicle ± SE) AR/Dihydrotestosterone (1 × 10^−9M) (human androgen receptor; calycosin 3 ×10^−6 g/mL) | Luciferase activity (Fold over vehicle ± SE) AR/Dihydrotestosterone (1 × 10^−9M) (human androgen receptor; calycosin 10 ×10^−6 g/mL) | Luciferase activity (Fold over vehicle ± SE) AR/Dihydrotestosterone (1 × 10^−9M) (human androgen receptor; calycosin 30 ×10^−6 g/mL) | increase of the activity of maximal doses of AR agonist (human androgen receptor; with dihydrotestosterone 1×10^−9M) | Luciferase activity (Fold over vehicle ± SE) PR/Progesterone (10 × 10^−6M) (Progesterone Receptor; calycosin 3 ×10^−6 g/mL) | Luciferase activity (Fold over vehicle ± SE) PR/Progesterone (10 × 10^−6M) (Progesterone Receptor; calycosin 10 ×10^−6 g/mL) | Luciferase activity (Fold over vehicle ± SE) PR/Progesterone (10 × 10^−6M) (Progesterone Receptor; calycosin 30 ×10^−6 g/mL) | increase of the activity of maximal doses of PR agonist (Progesterone Receptor; with progesterone 10×10^−6M) | Luciferase activity (Fold over vehicle ± SE) AR/Dihydrotestosterone (1 × 10^−9M) (human androgen receptor; daidzein 5 ×10^−6 g/mL) | Luciferase activity (Fold over vehicle ± SE) AR/Dihydrotestosterone (1 × 10^−9M) (human androgen receptor; daidzein 10 ×10^−6 g/mL) | Luciferase activity (Fold over vehicle ± SE) AR/Dihydrotestosterone (1 × 10^−9M) (human androgen receptor; daidzein 20 ×10^−6 g/mL) | Luciferase activity (Fold over vehicle ± SE) PR/Progesterone (10 × 10^−9M) (Progesterone Receptor; daidzein 5 ×10^−6 g/mL) | Luciferase activity (Fold over vehicle ± SE) PR/Progesterone (10 × 10^−9M) (Progesterone Receptor; daidzein 10 ×10^−6 g/mL) | Luciferase activity (Fold over vehicle ± SE) PR/Progesterone (10 × 10^−9M) (Progesterone Receptor; daidzein 20 ×10^−6 g/mL)
COc1ccc(-c2coc3cc(O)ccc3c2=O)cc1O [calycosin, 3′,7-Dihydroxy-4′-methoxyisoflavone] | 1997 ± 96.1 Fold | 4080 ± 5.67 Fold | 4502 ± 995 Fold | 5.8 fold | 1077 ± 43.4 Fold | 943 ± 44.0 Fold | 837 ± 115 Fold | 1.8 fold | – | – | – | – | – | –
O=c1c(-c2ccc(O)cc2)coc2cc(O)ccc12 [daidzein] | – | – | – | – | – | – | – | – | 1703 ± 154 Fold | 1684 ± 146 Fold | 1547 ± 257 Fold | 569 ± 84.0 Fold | 607 ± 90.6 Fold | 326 ± 65.8 Fold
